Data on 58 molecules can be found in ChEMBL document CHEMBL3351924, “Detailed analysis and follow-up studies of a high-throughput screening for indoleamine 2,3-dioxygenase 1 (IDO1) inhibitors” (Eur J Med Chem, 2014).

The term solubility denotes how much of the substance goes into solution per volume. Read a low solubility as little dissolved substance. The term IC50 denotes the concentration at which inhibition is half-maximal.

The nature of data set [1]: Solubility of the compound in pH 6.5 phosphate buffer containing 5% DMSO.
Data set [2] deals with T1, Indoleamine 2,3-dioxygenase 1 (Homo sapiens, UniProt P14902). The data set can be described thus: Inhibition of IDO1 (unknown origin) using L-tryptophan substrate incubated for 60 mins in presence of 0.01% Triton-X by HPLC.
T1 sequence (P14902 whole entry): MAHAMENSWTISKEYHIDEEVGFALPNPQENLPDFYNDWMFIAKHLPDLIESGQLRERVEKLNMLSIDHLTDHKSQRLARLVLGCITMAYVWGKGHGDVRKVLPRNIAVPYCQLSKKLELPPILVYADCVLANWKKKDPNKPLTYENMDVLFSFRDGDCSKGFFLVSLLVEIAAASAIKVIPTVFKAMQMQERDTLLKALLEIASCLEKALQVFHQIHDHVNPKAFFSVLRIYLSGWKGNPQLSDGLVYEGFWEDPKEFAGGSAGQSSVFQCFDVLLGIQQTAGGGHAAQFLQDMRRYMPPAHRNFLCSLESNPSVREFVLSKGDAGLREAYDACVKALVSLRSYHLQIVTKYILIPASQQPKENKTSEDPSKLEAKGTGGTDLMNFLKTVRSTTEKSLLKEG
The target in data set [3] is T1, Indoleamine 2,3-dioxygenase 1. The data set can be described thus: Inhibition of IDO1 (unknown origin) using L-tryptophan substrate incubated for 60 mins by HPLC.
Setting [4] is: phosphate buffer containing 5% DMSO.

Values after ≈ are worked out from the molar mass of the structure shown. Where only a bound is given, the exact number is not on record here.

Consider `Clc1ccc(Sc2nc(-c3cccs3)ns2)cc1`, for which the solubility in data set [1] (setting [4]) was found to be 100 µM (≈ 31.1 µg/mL).

For the molecule `Oc1ccccc1C(O)Cn1ccnc1` (stereo unspecified), the solubility in data set [1] (setting [4]) is greater than 1000 µM. Also, the IC50 entry in data set [2] is listed as “Not Active”.

As for `Clc1ccc(-n2ccnc2)c(Cl)c1`, the solubility in data set [1] (setting [4]) was greater than 1000 µM. In addition, in data set [2], the IC50 result is “Not Active”.

In data set [1] (setting [4]), `COCCCNC(=O)N/N=C/c1ccco1` came in with a solubility of 1000 µM (≈ 225 µg/mL).

Consider `COC(Cn1ccnc1)c1ccc(Cl)cc1Cl` (stereo unspecified), for which the solubility in data set [1] (setting [4]) was greater than 1000 µM. For the same molecule, the IC50 in data set [2] (read-out: IC50) stood at 140 µM.

For the molecule `Clc1ccc(C(Cn2ccnc2)OCc2cccnc2)c(Cl)c1` (stereo unspecified), the solubility in data set [1] (setting [4]) is greater than 1000 µM. In data set [2] (read-out: IC50), the IC50 is 84 µM.

The molecule `NC(=S)N/N=C/c1c(F)cccc1Cl` came in with a solubility in data set [1] (setting [4]) of 250 µM (≈ 57.9 µg/mL).

`CSC1=NNC(c2ccccn2)S1` (stereo unspecified): the solubility in data set [1] (setting [4]) stood at 100 µM (≈ 21.1 µg/mL).

In the case of `Clc1ccc(C(Cn2ccnc2)OCc2ccsc2Cl)c(Cl)c1` (stereo unspecified) [TIOCONAZOLE], the IC50 entry in data set [3] is “Not Active”. Also, in data set [1] (buffer), the concentration in solution (solubility) was 10 µM (≈ 3.88 µg/mL).

Consider `OC(Cn1ccnc1)c1ccccc1Cl` (stereo unspecified), for which the solubility in data set [1] (setting [4]) was greater than 1000 µM. Further, the IC50 in data set [2] (read-out: IC50) was found to be 200 µM.

Molecule `Oc1c(Cl)cc(Cl)cc1/C=N/c1ccc2[nH]cnc2c1` had a solubility in data set [1] (setting [4]) of 10 µM (≈ 3.06 µg/mL). That is a double-digit micromolar value.

`OC(Cn1ccnc1)c1ccc(Cl)c(Cl)c1` (stereo unspecified) showed a solubility in data set [1] (setting [4]) greater than 1000 µM. Also, the IC50 in data set [2] (read-out: IC50) turned out to be 830 µM.

For `COC(=O)C1=C(C)NC(C)=C(C(=O)OCC(C)C)C1c1ccccc1[N+](=O)[O-]` (stereo unspecified) [NISOLDIPINE], the IC50 result in data set [3] is recorded as “Not Active”. In addition, the solubility in data set [1] (setting [4]) was found to be 50 µM (≈ 19.4 µg/mL).

On to `CN(C)/C=N/C(=S)Nc1cccc(F)c1`, for which the solubility in data set [1] (setting [4]) was found to be 1000 µM (≈ 225 µg/mL).

In turn, `N#C/C(=C\c1c[nH]cn1)S(=O)(=O)c1ccc(Cl)cc1` displayed a solubility in data set [1] (setting [4]) of 1000 µM (≈ 294 µg/mL).

Molecule `Clc1ccc(CCn2ccnc2)c(Cl)c1` showed a solubility in data set [1] (setting [4]) greater than 1000 µM. In data set [2] (read-out: IC50), the IC50 is 820 µM.

For `OC(Cn1ccnc1)c1cccc(Cl)c1` (stereo unspecified), the solubility in data set [1] (setting [4]) was greater than 1000 µM. Further, the IC50 result in data set [2] is “Not Active”.

With `c1ccc(CCn2ccnc2)cc1`, the solubility in data set [1] (setting [4]) is greater than 1000 µM. Besides, the IC50 result in data set [2] is “Not Active”.

Regarding `OC(Cn1cncn1)c1ccc(Cl)cc1Cl` (stereo unspecified), the solubility in data set [1] (setting [4]) was greater than 1000 µM. Besides, in data set [2], the IC50 result is recorded as “Not Active”.

The molecule `COc1cccc(N(C)C(=S)Oc2ccc3c(c2)CCCC3)n1` [LIRANAFTATE] gave a solubility in data set [1] (setting [4]) of 12.5 µM (≈ 4.11 µg/mL).

For the molecule `COCCCOc1ccnc(C[S+]([O-])c2nc3ccccc3[nH]2)c1C` (stereo unspecified) [RABEPRAZOLE], the 50% inhibitory concentration (IC50) entry in data set [3] is given as “Not Active”. In addition, the concentration in solution in data set [1] (setting [4]) (solubility) came to 1000 µM (≈ 359 µg/mL).

In turn, `Cc1cc(N/C=C(\C#N)S(=O)(=O)c2ccccc2Cl)nc(C)n1` registered a solubility in data set [1] (setting [4]) of 250 µM (≈ 87.2 µg/mL).

The molecule `Cn1cc(Cl)c(/C=C(\C#N)S(=O)(=O)C(C)(C)C)n1` had a solubility in data set [1] (setting [4]) of 1000 µM (≈ 288 µg/mL). Against the preceding molecule, the solubility is about 4-fold higher.

Consider `CC(C)(N)Cc1ccccc1` [PHENTERMINE], for which the solubility in data set [1] (setting [4]) turned out to be 1000 µM (≈ 149 µg/mL). That is a millimolar value.

On to `Sc1ncnc2nc[nH]c12` [MERCAPTOPURINE ANHYDROUS], for which the IC50 entry in data set [3] is recorded as “Not Active”. The molecule also came in with a solubility in data set [1] (setting [4]) of 1000 µM (≈ 152 µg/mL).

For `COC(=O)C1=C(C)NC(C)=C(C(=O)OC)C1c1ccccc1[N+](=O)[O-]` [NIFEDIPINE], the half-inhibitory concentration (IC50) entry in data set [3] is “Not Active”.

For the molecule `Nc1n[nH]c2cc(O)[nH]c(=O)c12`, the IC50 entry in data set [3] is listed as “Not Active”. Also, in data set [1] (setting [4]), the solubility came to 1000 µM (≈ 166 µg/mL).

In the case of `O=C(c1ccc(OCCN2CCCCC2)cc1)c1c(-c2ccc(O)cc2)sc2cc(O)ccc12` [RALOXIFENE], in data set [1] (setting [4]), the solubility amounted to 50 µM (≈ 23.7 µg/mL).

On to `NC(=S)N/N=C1\CCc2ccccc21`, for which the 50% inhibitory concentration (IC50) entry in data set [3] is “Not Active”. This molecule showed a solubility in data set [1] (setting [4]) of 1000 µM (≈ 205 µg/mL).

With `CCN(CC)C(=S)SSC(=S)N(CC)CC`, in data set [3], the half-inhibitory concentration (IC50) entry was “Not Active”. The molecule further gave a solubility in data set [1] (setting [4]) of 100 µM (≈ 29.7 µg/mL).

The molecule `Cc1nn(-c2ccccc2)nc1CNC(=O)c1ccc2nsnc2c1` gave a solubility in data set [1] (setting [4]) of 50 µM (≈ 17.5 µg/mL).

As for `OC(Cn1ccnc1)c1ccc(Cl)cc1Cl` (stereo unspecified), the solubility in data set [1] (setting [4]) was greater than 1000 µM. The IC50 in data set [2] (read-out: IC50) is 130 µM.

On to `Oc1ccc(Br)cc1/C=N/c1ccc2[nH]nnc2c1`, for which the concentration for half-maximal inhibition (IC50) entry in data set [3] is on record as “Not Active”. For the same molecule, in data set [1] (setting [4]), the solubility is 10 µM (≈ 3.17 µg/mL).

Consider `CCN(CC)c1ccc(NC(=O)C2CCCCC2)c(N(CC)CC)n1`, for which the solubility in data set [1] (setting [4]) was 25 µM (≈ 8.66 µg/mL).

In data set [1] (setting [4]), `O=C(CC(=O)c1cccnc1)c1cccnc1` came in with a solubility of 1000 µM (≈ 226 µg/mL).

In data set [1] (setting [4]), `Clc1ccc(COCCn2ccnc2)c(Cl)c1` displayed a solubility greater than 1000 µM. Further, the 50% inhibitory concentration (IC50) entry in data set [2] was “Not Active”.

For the molecule `N#C/C(=C\c1c[nH]cn1)S(=O)(=O)c1cccs1`, the solubility in data set [1] (setting [4]) was found to be 1000 µM (≈ 265 µg/mL).

As for `COc1ccc(-c2n[nH]cc2/C=C(/C#N)S(C)(=O)=O)cc1`, in data set [1] (setting [4]), the solubility worked out at 100 µM (≈ 30.3 µg/mL).

For the molecule `COc1ccccc1NC(=S)N/N=C/c1ccco1`, the solubility in data set [1] (setting [4]) worked out at 250 µM (≈ 68.8 µg/mL). Compared with the last molecule, the solubility is about 2.5-fold higher.

`c1ccc(Cn2ccnc2)cc1` [BENZYLIMIDAZOLE]: the solubility in data set [1] (setting [4]) was greater than 1000 µM. In data set [2], the IC50 result is given as “Not Active”.

In data set [1] (setting [4]), `OC(Cn1ccnc1)c1c(Cl)cccc1Cl` (stereo unspecified) showed a solubility greater than 1000 µM. Besides, in data set [2], the IC50 entry is given as “Not Active”.

Take `Clc1ccc(CCC(Cn2ccnc2)Sc2c(Cl)cccc2Cl)cc1` (stereo unspecified) [BUTOCONAZOLE]: the half-inhibitory concentration (IC50) result in data set [3] is given as “Not Active”. This molecule also displayed a solubility in data set [1] (setting [4]) of 10 µM (≈ 4.12 µg/mL).

In data set [1] (setting [4]), `CNC(=S)N/N=C/c1ccc(OC)c(OC)c1` registered a solubility of 1000 µM (≈ 253 µg/mL).

Take `CC(C)(C)S(=O)(=O)/C(C#N)=C/c1ccsc1`: in data set [1] (setting [4]), the solubility came out at 1000 µM (≈ 255 µg/mL).

`Cc1cc(NS(=O)(=O)c2ccc(Cl)s2)no1` yielded a solubility in data set [1] (setting [4]) of 1000 µM (≈ 279 µg/mL).

`Oc1nc(=S)ccn1-c1nc(-c2ccccc2)sc1-c1ccccc1`: in data set [1] (setting [4]), the solubility is 50 µM (≈ 18.2 µg/mL).

On to `CC1=C(C#N)C(c2ccc(-c3ccc(Cl)cc3[N+](=O)[O-])o2)C(C#N)=C(C)N1`, for which the IC50 result in data set [3] is “Not Active”. Further, the solubility in data set [1] (setting [4]) is 50 µM (≈ 19 µg/mL).

In data set [1] (setting [4]), `CCOC(=O)C1=C(C)NC(C)=C(C(=O)OCC)C1c1ccccc1/C=C/C(=O)OC(C)(C)C` [LACIDIPINE] registered a solubility of 1 µM (≈ 0.456 µg/mL).

The molecule `Clc1ccc(Cn2ccnc2)c(Cl)c1` registered a solubility in data set [1] (setting [4]) greater than 1000 µM. In data set [2] (read-out: IC50), the IC50 was 310 µM.

Regarding `OC(Cn1ccnc1)c1ccc(Cl)cc1` (stereo unspecified), in data set [1] (setting [4]), the solubility is greater than 1000 µM. For the same molecule, the IC50 entry in data set [2] is listed as “Not Active”.

`Cc1cc(C2CCCCC2)n(O)c(=O)c1` [CICLOPIROX]: in data set [3], the IC50 result is “Not Active”. The solubility in data set [1] (buffer) was found to be 1000 µM (≈ 207 µg/mL).

Regarding `NC(=O)N/N=C/c1ccc(-c2ccc(C(F)(F)F)cc2[N+](=O)[O-])o1`, the 50% inhibitory concentration (IC50) result in data set [3] is “Not Active”. Further, the solubility in data set [1] (setting [4]) amounted to 50 µM (≈ 17.1 µg/mL).

As for `OC(Cn1ccnc1)c1ccccc1` (stereo unspecified), the solubility in data set [1] (setting [4]) was greater than 1000 µM. For the same molecule, the IC50 result in data set [2] is listed as “Not Active”.

Turning to `c1ccc(-n2ccnc2)cc1`, the solubility in data set [1] (setting [4]) was greater than 1000 µM. Also, the IC50 entry in data set [2] is given as “Not Active”.

In data set [1] (setting [4]), `OC(Cc1c[nH]nn1)c1ccc(Cl)cc1Cl` (stereo unspecified) gave a solubility greater than 1000 µM. In data set [2], the IC50 entry was “Not Active”.

As for `Cc1cc(C)n2[nH]c(=S)nc2n1`, the solubility in data set [1] (setting [4]) amounted to 1000 µM (≈ 180 µg/mL).

In data set [1] (setting [4]), `O=C(Cn1ccnc1)c1ccc(Cl)cc1Cl` displayed a solubility greater than 1000 µM. Further, in data set [2], the concentration for half-maximal inhibition (IC50) entry is listed as “Not Active”.

Consider `S=c1[nH]cc(-c2ccc(Cl)cc2)o1`, for which the IC50 result in data set [3] was “Not Active”. The solubility in data set [1] (setting [4]) stood at 100 µM (≈ 21.2 µg/mL).
